This note sets out measurements from US20070128217A1 (priority 2003, published 2007).

The test system of assay [1] is antibodies in sera from SARS patients (sera 1a, 1b, 2, 6, 37, 62, London, SARS-yellow, SARS-green). The assay is classed as binding, human. Also on record: Binding of serum 6 to linear peptides of protein X1 of SARS-CoV Urbani / Binding of serum 37 to linear peptides of protein X1 of SARS-CoV Urbani / Binding of serum 6 to looped/cyclic peptide (PEPSCAN-ELISA) / Binding of serum 37 to looped/cyclic peptide (PEPSCAN-ELISA) / Binding of serum 37 to looped/cyclic peptides of protein X1 of SARS-CoV Urbani / Binding of serum 6 to linear peptides of protein X2 / Binding of serum 37 to linear peptides of protein X2 / Binding of serum 37 to looped/cyclic peptides of protein X2 of SARS-CoV Urbani / Binding of serum 6 to linear peptides of protein M of SARS-CoV Urbani / Binding of serum 37 to linear peptides of protein M of SARS-CoV Urbani / Binding of serum 6 to looped/cyclic peptides of protein M of SARS-CoV Urbani / Binding of serum 37 to looped/cyclic peptides of protein M of SARS-CoV Urbani / Binding of serum 6 to linear peptides of protein X3 of SARS-CoV Urbani / Binding of serum 37 to linear peptides of protein X3 of SARS-CoV Urbani / Binding of serum 37 to looped/cyclic peptides of protein X3 of SARS-CoV Urbani / Binding of serum 6 to linear peptides of protein X4 of SARS-CoV Urbani / Binding of serum 37 to linear peptides of protein X4 of SARS-CoV Urbani / Binding of serum 37 to looped/cyclic peptides of protein X4 of SARS-CoV Urbani / Binding of serum 6 to linear peptides of protein X5 of SARS-CoV Urbani / Binding of serum 37 to linear peptides of protein X5 of SARS-CoV Urbani / Binding of serum 37 to looped/cyclic peptides of protein X5 of SARS-CoV Urbani / Binding of serum 6 to linear peptides of protein N of SARS-CoV Urbani / Binding of serum 37 to linear peptides of protein N of SARS-CoV Urbani / Binding of serum 6 to linear peptide (PEPSCAN-ELISA) / Binding of serum 1a to looped/cyclic peptides of protein N of SARS-CoV Urbani / Binding of serum 1b to looped/cyclic peptides of protein N of SARS-CoV Urbani / Binding of serum 2 to looped/cyclic peptides of protein N of SARS-CoV Urbani / Binding of serum 6 to looped/cyclic peptides of protein N of SARS-CoV Urbani / Binding of serum 37 to looped/cyclic peptides of protein N of SARS-CoV Urbani / Binding of serum 62 to looped/cyclic peptides of protein N of SARS-CoV Urbani / Binding of serum London to looped/cyclic peptides of protein N of SARS-CoV Urbani / Binding of serum SARS-green to looped/cyclic peptides of protein N of SARS-CoV Urbani: unit not given here.

Assay [2] has as its system rabbit serum obtained by immunizing a rabbit with the SARS-CoV strain Frankfurt 1. In kind it is binding. Also on record: Binding of a rabbit serum to linear peptides / Binding of a rabbit serum to looped peptides / Rabbit serum linear peptides / Rabbit serum looped peptides / Binding of a rabbit serum to linear peptides of protein N of SARS-CoV Urbani (Rabbit serum linear peptides) / Binding of a rabbit serum to looped/cyclic peptides of protein N of SARS-CoV Urbani (Rabbit serum looped peptides): unit not given here.

Assay [3] relates to control sera (pooled serum of ten healthy LUMC hospital workers; commercial negative donor pooled serum from the Dutch bloodbank). The assay is classed as binding, human. Also on record: Binding of Control serum LUMC to linear peptides / Binding of Control serum Blood-bank to linear peptides / Binding of Control serum LUMC to looped peptides / Binding of Control Serum Blood-Bank to Looped peptides / Binding of Control serum LUMC to linear peptides of the protein M of SARS-CoV Urbani / Binding of Control serum Blood-bank to linear peptides of the protein M of SARS-CoV Urbani / Binding of Control serum LUMC to looped peptides of the protein M of SARS-CoV Urbani / Binding of Control Serum Blood-Bank to Looped peptides of the protein M of SARS-CoV Urbani: unit not given here.

VGLMWLSYFVASFRL: in assay [1], the “Binding of serum 1a to linear peptides of protein M of SARS-CoV Urbani” value stood at 0.6, the “Binding of serum 1a to looped/cyclic peptides of protein M of SARS-CoV Urbani” value came to 0.6, the “Binding of serum 1b to linear peptides of protein M of SARS-CoV Urbani” value is recorded as 0.5 and the “Binding of serum 1b to looped/cyclic peptides of protein M of SARS-CoV Urbani” value is on record as 0.3. In assay [1], the “Binding of serum 2 to linear peptides of protein M of SARS-CoV Urbani” value is 0.4, the “Binding of serum 2 to looped/cyclic peptides of protein M of SARS-CoV Urbani” value was found to be 0.5, the “Binding of serum 6 to linear peptides of protein M of SARS-CoV Urbani” value stood at 0.5 and the “Binding of serum 6 to looped/cyclic peptides of protein M of SARS-CoV Urbani” value is reported as 0.5. In assay [1], the “Binding of serum 37 to linear peptides of protein M of SARS-CoV Urbani” value is given as 0.4, the “Binding of serum 37 to looped/cyclic peptides of protein M of SARS-CoV Urbani” value came to 0.6, the “Binding of serum 62 to linear peptides of protein M of SARS-CoV Urbani” value worked out at 0.4 and the “Binding of serum 62 to looped/cyclic peptides of protein M of SARS-CoV Urbani” value came out at 0.5. Also, in assay [1], the “Binding of serum London to linear peptides of protein M of SARS-CoV Urbani” value came to 0.5, the “Binding of serum London to looped/cyclic peptides of protein M of SARS-CoV Urbani” value stood at 0.2, the “Binding of serum SARS-green to linear peptides of protein M of SARS-CoV Urbani” value came to 0.4 and the “Binding of serum SARS-green to looped/cyclic peptides of protein M of SARS-CoV Urbani” value was found to be 0.2. For the same sequence, in assay [1], the “Binding of serum SARS-yellow to linear peptides of protein M of SARS-CoV Urbani” value was found to be 0.1 and the “Binding of serum SARS-yellow to looped/cyclic peptides of protein M of SARS-CoV Urbani” value is recorded as 0.8. Moreover, in assay [2], the “Rabbit serum linear peptides” value was 0.0 and the “Rabbit serum looped peptides” value was 0.4. Moreover, in assay [3], the “Binding of Control Serum Blood-Bank to Looped peptides of the protein M of SARS-CoV Urbani” value stood at 0.6, the “Binding of Control serum Blood-bank to linear peptides of the protein M of SARS-CoV Urbani” value worked out at 0.6, the “Binding of Control serum LUMC to linear peptides of the protein M of SARS-CoV Urbani” value was found to be 0.5 and the “Binding of Control serum LUMC to looped peptides of the protein M of SARS-CoV Urbani” value came out at 0.6.
Consider VGTDSGFAAYNRYRI, for which, in assay [1], the “Binding of serum 1a to linear peptides of protein M of SARS-CoV Urbani” value was found to be 0.8, the “Binding of serum 1a to looped/cyclic peptides of protein M of SARS-CoV Urbani” value is on record as 0.7, the “Binding of serum 1b to linear peptides of protein M of SARS-CoV Urbani” value is listed as 0.4 and the “Binding of serum 1b to looped/cyclic peptides of protein M of SARS-CoV Urbani” value worked out at 0.4. Further, in assay [1], the “Binding of serum 2 to linear peptides of protein M of SARS-CoV Urbani” value came to 0.4, the “Binding of serum 2 to looped/cyclic peptides of protein M of SARS-CoV Urbani” value amounted to 0.7, the “Binding of serum 6 to linear peptides of protein M of SARS-CoV Urbani” value worked out at 0.3 and the “Binding of serum 6 to looped/cyclic peptides of protein M of SARS-CoV Urbani” value turned out to be 0.6. In assay [1], the “Binding of serum 37 to linear peptides of protein M of SARS-CoV Urbani” value was 0.6, the “Binding of serum 37 to looped/cyclic peptides of protein M of SARS-CoV Urbani” value is reported as 0.7, the “Binding of serum 62 to linear peptides of protein M of SARS-CoV Urbani” value worked out at 0.7 and the “Binding of serum 62 to looped/cyclic peptides of protein M of SARS-CoV Urbani” value is 0.8. Also, in assay [1], the “Binding of serum London to linear peptides of protein M of SARS-CoV Urbani” value is given as 0.3, the “Binding of serum London to looped/cyclic peptides of protein M of SARS-CoV Urbani” value was 0.2, the “Binding of serum SARS-green to linear peptides of protein M of SARS-CoV Urbani” value turned out to be 0.3 and the “Binding of serum SARS-green to looped/cyclic peptides of protein M of SARS-CoV Urbani” value came out at 0.4. Further, in assay [1], the “Binding of serum SARS-yellow to linear peptides of protein M of SARS-CoV Urbani” value is given as 0.1 and the “Binding of serum SARS-yellow to looped/cyclic peptides of protein M of SARS-CoV Urbani” value was 0.5. Also, in assay [2], the “Rabbit serum linear peptides” value turned out to be 0.4 and the “Rabbit serum looped peptides” value is given as 0.0. Further, in assay [3], the “Binding of Control Serum Blood-Bank to Looped peptides of the protein M of SARS-CoV Urbani” value was 0.5, the “Binding of Control serum Blood-bank to linear peptides of the protein M of SARS-CoV Urbani” value is on record as 0.7, the “Binding of Control serum LUMC to linear peptides of the protein M of SARS-CoV Urbani” value came out at 0.3 and the “Binding of Control serum LUMC to looped peptides of the protein M of SARS-CoV Urbani” value turned out to be 0.6.
With VHGYFTEVYYQLEST, in assay [1], the “Binding of serum 1a to linear peptides of protein X1 of SARS-CoV Urbani” value is 0.7, the “Binding of serum 1a to looped/cyclic peptides of protein X1 of SARS-CoV Urbani” value is reported as 0.5, the “Binding of serum 1b to linear peptides of protein X1 of SARS-CoV Urbani” value was 0.5 and the “Binding of serum 1b to looped/cyclic peptides of protein X1 of SARS-CoV Urbani” value was 0.4. For the same sequence, in assay [1], the “Binding of serum 2 to linear peptides of protein X1 of SARS-CoV Urbani” value was determined as 0.4, the “Binding of serum 2 to looped/cyclic peptides of protein X1 of SARS-CoV Urbani” value amounted to 0.5, the “Binding of serum 6 to linear peptides of protein X1 of SARS-CoV Urbani” value was 0.4 and the “Binding of serum 6 to looped/cyclic peptides of protein X1 of SARS-CoV Urbani” value is 0.3. Moreover, in assay [1], the “Binding of serum 37 to linear peptides of protein X1 of SARS-CoV Urbani” value stood at 0.4, the “Binding of serum 37 to looped/cyclic peptides of protein X1 of SARS-CoV Urbani” value amounted to 0.5, the “Binding of serum 62 to linear peptides of protein X1 of SARS-CoV Urbani” value amounted to 0.3 and the “Binding of serum 62 to looped/cyclic peptides of protein X1 of SARS-CoV Urbani” value came out at 0.6. Besides, in assay [1], the “Binding of serum London to linear peptides of protein X1 of SARS-CoV Urbani” value is on record as 0.2, the “Binding of serum London to looped/cyclic peptides of protein X1 of SARS-CoV Urbani” value came out at 0.2, the “Binding of serum SARS-green to linear peptides of protein X1 of SARS-CoV Urbani” value stood at 0.1 and the “Binding of serum SARS-green to looped/cyclic peptides of protein X1 of SARS-CoV Urbani” value came out at 0.3. In addition, in assay [1], the “Binding of serum SARS-yellow to linear peptides of protein X1 of SARS-CoV Urbani” value is recorded as 0.3 and the “Binding of serum SARS-yellow to looped/cyclic peptides of protein X1 of SARS-CoV Urbani” value is given as 0.5. In assay [2], the “Binding of a rabbit serum to linear peptides” value is given as 0.1 and the “Binding of a rabbit serum to looped peptides” value worked out at 0.6. Further, in assay [3], the “Binding of Control Serum Blood-Bank to Looped peptides” value is listed as 0.5, the “Binding of Control serum Blood-bank to linear peptides” value was found to be 0.4, the “Binding of Control serum LUMC to linear peptides” value worked out at 0.5 and the “Binding of Control serum LUMC to looped peptides” value is recorded as 0.7.
For the sequence VILRIGTQVLKTMSL, in assay [1], the “Binding of serum 1a to linear peptides of protein X2” value worked out at 0.6, the “Binding of serum 1a to looped/cyclic peptides of protein X2 of SARS-CoV Urbani” value turned out to be 0.6, the “Binding of serum 1b to linear peptides of protein X2” value is on record as 0.5 and the “Binding of serum 1b to looped/cyclic peptides of protein X2 of SARS-CoV Urbani” value is given as 0.6. Also, in assay [1], the “Binding of serum 2 to linear peptides of protein X2” value turned out to be 0.5, the “Binding of serum 2 to looped/cyclic peptides of protein X2 of SARS-CoV Urbani” value came out at 0.4, the “Binding of serum 6 to linear peptides of protein X2” value is on record as 0.5 and the “Binding of serum 6 to looped/cyclic peptides of protein X2 of SARS-CoV Urbani” value is 0.5. In assay [1], the “Binding of serum 37 to linear peptides of protein X2” value is 0.6, the “Binding of serum 37 to looped/cyclic peptides of protein X2 of SARS-CoV Urbani” value was determined as 0.5, the “Binding of serum 62 to linear peptides of protein X2” value was determined as 0.6 and the “Binding of serum 62 to looped/cyclic peptides of protein X2 of SARS-CoV Urbani” value worked out at 0.7. For the same sequence, in assay [1], the “Binding of serum London to linear peptides of protein X2” value is given as 0.4, the “Binding of serum London to looped/cyclic peptides of protein X2 of SARS-CoV Urbani” value is listed as 0.2, the “Binding of serum SARS-green to linear peptides of protein X2” value is reported as 0.4 and the “Binding of serum SARS-green to looped/cyclic peptides of protein X2 of SARS-CoV Urbani” value was 0.3. In assay [1], the “Binding of serum SARS-yellow to linear peptides of protein X2” value was 0.4 and the “Binding of serum SARS-yellow to looped/cyclic peptides of protein X2 of SARS-CoV Urbani” value is listed as 0.4. In assay [2], the “Binding of a rabbit serum to linear peptides” value came to 0.3 and the “Binding of a rabbit serum to looped peptides” value came to 0.5. In addition, in assay [3], the “Binding of Control Serum Blood-Bank to Looped peptides” value was 0.7, the “Binding of Control serum Blood-bank to linear peptides” value turned out to be 0.8, the “Binding of Control serum LUMC to linear peptides” value is 0.5 and the “Binding of Control serum LUMC to looped peptides” value is given as 0.7.
